Reference: patent US8343509B2, “Methods and compositions for detection of bacteria and treatment of diseases and disorders” (priority 2008, dated 2013)
Where two headings read alike, the source gives them in different places.

How the values were obtained:
[1] = system: Escherichia coli Nissle 1917 (EcN); experiment: In vitro tracer uptake into E. coli Nissle culture (gamma counter); format: cell-based; conditions: 0.925 MBq tracer, culture grown at 37° C. for 4 hours
Description: An overnight culture of EcN was diluted 1:50 into 5 ml fresh LB-broth, supplemented with 0.925 MBq (25 μCi) of [^18F]-FDG or [^18F]-FEAU. The cultures were grown at 37° C. for 4 hours. The bacteria were harvested by centrifugation, washed twice with PBS and the radioactivity in the pelleted bacteria and medium was measured in a gamma counter (Packard, United Technologies, Downers Grove, Ill.).

E. coli Nissle [2] = conditions: for tumor-to-organ ratio, heart / tumor-to-organ ratio, liver / tumor-to-organ ratio, muscle: PET
Description: The in vivo uptake of [^18F]-FDG and [^18F]-FEAU by administered EcN bacteria was studied using a mouse tumor model and imaged by positron emission tomography (PET) scanning.
At two weeks post tumor cell implantation (tumor diameter >5 mm), the EcN bacteria (4×10^6 CFU in 100 μl PBS) were administered systemically by lateral tail vein injection into the tumor bearing mice. Control mice were injected with 100 μl PBS via tail vein.
Prior to tracer administration, [^18F]-FDG or [^18F]-FEAU, the animals were starved 12 h and kept under anesthesia between tracer injection and imaging. In the [^18F]-FDG experimental group of mice (n=6 for each time point), each animal was injected intravenously by tail vein with 9.25 MBq (250 μCi) of [^18F]-FDG at either 16 or 72 hours after administration of EcN. Control mice received 9.25 MBq (250 μCi) of [^18F]-FDG following administration of PBS. [^18F]-FDG FDG PET scanning was performed 1 h after tracer administration using a 10 minute list mode acquisition.
In the [^18F]-FEAU experimental group of mice (n=8 for each time point), each animal was injected intravenously by tail vein with 9.25 MBq (250 μCi) of [^18F]-FEAU at either 16 or 72 hours after administration of EcN. Control mice received 9.25 MBq (250 μCi) of [^18F]-FEAU following administration of 100 μl PBS. [^18F]-FDG PET scanning was performed 2 h after tracer administration using a 10 minute list mode acquisition.
Imaging was performed using a Focus 120 microPET™ dedicated small-animal PET scanner (Concorde Microsystems Inc, Knoxyille, Tenn.). Mice were maintained under 2% isofluorane anesthesia with an oxygen flow rate of 2 l/min during the entire scanning period. Three-dimensional (3D) list-mode data were acquired using an energy window of 350-700 keV for ^18F and 410-580 keV for ^124I, respectively and a coincidence timing window of 6 ns. […] Transverse images were reconstructed by filtered back-projection using a ramp filter with a cut-off frequency equal to the Nyquist frequency in a 128×128×94matrix comprised of 0.866×0.866×0.866-mm voxels. The image data were corrected for (a) non-uniformity of scanner response using a uniform cylinder source-based normalization, (b) dead time count losses using a singles count rate-based global correction, (c) physical decay to the time of injection, and (d) the ^124I branching ratio. There was no correction applied for attenuation, scatter or partial-volume averaging. The count rates in the reconstructed images were converted to activity concentration (% of injected dose per gram of tissue, % ID/g) using a system calibration factor (μCi/ml/cps/voxel) derived from imaging of a rat-size phantom filled with a uniform aqueous solution of ^18F.
PET image analysis was performed using ASIPro™ software (Concorde Microsystems Inc., Knoxyille, Tenn.). For each PET scan, regions of interest (ROIs) were manually drawn over tumor, liver, skeletal muscle and heart.

E. coli Nissle [3] = experiment: [18F]-FEAU uptake by tissue sampling, tumor-to-organ radioactivity ratios; format: in vivo, mice; conditions: after EcN administration, p<0.02
Description: In vivo uptake of [^18F]-FEAU was measured in a separate experiment by measurement of tumor-to-organ (liver, spleen, heart and lung) [^18F]-FEAU radioactivity ratios via tissue sampling. […] Euthanized mice were rinsed with 100% ethanol prior to tissue removal. Organs, including liver, lung, spleen and heart, were sampled and weighed before radioactivity was measured. Tumor tissue was weighed and homogenized in 1 ml PBS. Serial dilutions of the homogenized sample were plated on L-arabinose containing LB-agar plates. […] The remaining tumor suspension and organ samples were assayed for radioactivity in a gamma counter (Packard, United Technologies, Downers Grove, Ill.). [^18F]-FEAU radioactivity (% ID/g) in the samples was determined and tumor-to-organ ratios calculated. To assess the correlation between radioactivity and scintillation counter measurements, the Pearson correlation coefficient was computed.

E. coli Nissle [4] = conditions: in the absence of bacteria
Description: Using the data obtained in Example 2 for in vivo [^18F]-FEAU uptake, tumor radioactivity (% ID/g), corrected for background radioactivity, was plotted against the number of bacterial colony forming units per gram for each of the tumors imaged.

E. coli Nissle [5] = experiment: In vivo [124I]-FIAU PET distribution over time in 4T1 xenograft mice
Description: Mice bearing 4T1 xenografts were generated as described in Example 2. Prior to intravenous administration of ^[124I]-FIAU, three mice were injected with EcN-bacteria and 3 mice with PBS (control). 37 MBq (1000 μCi) of [^124I]-FIAU was injected into each animal intravenously 72 h after bacterial injection. Potassium iodide was used to block the uptake of radioactive iodine by the thyroid. Imaging of [^124I]-FIAU uptake by PET was obtained 4, 8, 12, 24, 48 and 72 h after tracer administration with 10 minute list acquisition at the 4 h and 8 h imaging time points, 15 minute at the 12 h time point, 30 minute at 24 h time point and 60 minute at the 48 h and 72 h time points. After tracer administration and between imaging time points, the animals were allowed to awake and maintain normal husbandry.

[6] = 4T1 tumors, without/prior to EcN injection
[7] = tracer 16 h after EcN injection
[8] = tracer 72 h after EcN injection

SMILES	enrichment of radioactivity within EcN-bacteria compared to the remaining LB-broth [1] [fold]	enhancement of the tracer signal (tumor-to-organ ratios post-EcN vs pre-EcN) (E. coli Nissle [2]; 16 h after EcN injection) [fold]	enhancement of the tracer signal (tumor-to-organ ratios post-EcN vs pre-EcN) (E. coli Nissle [2]; 72 h after EcN injection) [fold]	tumor-to-organ ratio, heart (E. coli Nissle [2]; [6])	tumor-to-organ ratio, liver (E. coli Nissle [2]; [6])	tumor-to-organ ratio, muscle (E. coli Nissle [2]; [6])	tumor-to-organ ratio, heart (E. coli Nissle [2]; [7])	tumor-to-organ ratio, liver (E. coli Nissle [2]; [7])	tumor-to-organ ratio, muscle (E. coli Nissle [2]; [7])	tumor-to-organ ratio, heart (E. coli Nissle [2]; [8])	tumor-to-organ ratio, liver (E. coli Nissle [2]; [8])	tumor-to-organ ratio, muscle (E. coli Nissle [2]; [8])	tumor to organ ratio (liver, spleen, heart, lung) by tissue sampling (E. coli Nissle [3])	uptake in tumors (E. coli Nissle [2]; in the absence of EcN injection)	accumulation in 4T1 xenografts (E. coli Nissle [4])	background radioactivity in PET images (E. coli Nissle [5]; 4 and 8 h acquisition time points)	tumor/background ratios (E. coli Nissle [5]; 48 and 72 h after tracer, EcN-treated animals)	enrichment in the bacteria-treated tumors versus control tumors (E. coli Nissle [5]; tracer 72 h after bacterial injection) [fold]
OC[C@H]1OC(O)[C@H]([18F])[C@@H](O)[C@@H]1O (stereo partly drawn) [[^18F]-FDG, 2′-[^18F]fluoro-2′deoxy-D-glucose]	120	~1.7	~1.4	0.23±0.12	1.6±0.4	3.3±0.7	0.31±0.8	2.6±0.5	5.4±1.1	0.31±0.17	2.2±0.8	4.3±1.2	–	–	–	–	–	–
CCc1cn([C@@H]2O[C@H](CO)[C@@H](O)[C@@H]2[18F])c(=O)[nH]c1=O [[^18F]-FEAU, 2′-[^18F]fluoro-2′deoxy-1-β-D-arabinofuranosyl-5-ethyl-uracil]	6.5	~1.6	~2.1	1.4±0.3	1.4±0.3	1.7±0.4	2.1±0.6	2.0±0.7	2.6±0.8	2.9±0.8	2.4±0.8	3.0±1.3	increased significantly	much lower than that of [^18F]-FDG	near background levels	–	–	–
O=c1[nH]c(=O)n([C@@H]2O[C@H](CO)[C@@H](O)[C@@H]2F)cc1I [[^124I]-FIAU, 5-iodo-2′-fluoro-2′deoxy-1-β-D-arabino-furanosyl-uracil]	–	–	–	–	–	–	–	–	–	–	–	–	–	–	low levels above background	very high background radioactivity	greater than 5	2.5
